Test results reported in patent publication US20110124715A1, “Antiviral Oligonucleotides Having a Conserved G4 Core Sequence” (priority 1992, published 2011).
Values joined by “and” are separate entries in the source; they are usually repeats but may differ in a detail not shown here. Equal values may be shown once. Strand notation (5' to 3'): a small letter for the sugar, then the base; units joined by * are phosphorothioate-linked, units joined directly phosphodiester-linked; [ ] holds rarer units or linkages, { } end groups; capitals alone tell only the bases. d = 2'-deoxy (DNA)

molecular target: T1, human type II phospholipase A2 (Homo sapiens, UniProt P14555); test: Phospholipase A2 assay, 3H-oleic acid labelled E. coli substrate; format: biochemical; settings: Table 4; 1 μM
T1 sequence (P14555 21-144): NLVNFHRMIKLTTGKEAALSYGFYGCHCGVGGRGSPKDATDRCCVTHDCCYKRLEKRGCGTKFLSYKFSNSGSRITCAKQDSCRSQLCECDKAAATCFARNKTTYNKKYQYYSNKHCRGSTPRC

| Substance | % Inhibition (1 μM) |
| --- | --- |
| 3181 (antisense dT*dC*dT*dG*dC*dC*dC*dC*dG*dG*dC*dC*dG*dT*dC*dG*dC*dT*dC*dC*dC) [compound 3181] | 42.7% |
| 3182 (antisense dC*dA*dG*dA*dG*dG*dA*dC*dT*dC*dC*dA*dG*dA*dG*dT*dT*dG*dT*dA*dT) [compound 3182] | 30.2% |
| 3184 (antisense dT*dT*dC*dA*dT*dG*dG*dT*dA*dA*dG*dA*dG*dT*dT*dC*dT*dT*dG*dG*dG) [compound 3184] | 25.1% |
| 3185 (antisense CAAAGATCATGATCACTGCCA; phosphorothioate, chemistry not fully specified) [compound 3185] | 22.7% |
| 3192 (dG*dG*dA*dA*dG*dG*dT*dT*dT*dC*dC*dA*dG*dG*dG*dA*dA*dG*dA*dG*dG) [compound 3192] | 28.1% |
| 3193 (dC*dC*dT*dG*dC*dA*dG*dT*dA*dG*dG*dC*dC*dT*dG*dG*dA*dA*dG*dG*dA) [compound 3193] | 22.6% |
| 3196 (dG*dG*dG*dT*dG*dG*dG*dT*dA*dT*dA*dG*dA*dA*dG*dG*dG*dC*dT*dC*dC) [compound 3196] | 98.5% |
| 3468 (dG*dG*dG*dA*dC*dT*dC*dA*dG*dC*dA*dA*dC*dG*dA*dG*dG*dG*dG*dT*dG) [compound 3468] | 97.5% |
| 3470 (dG*dT*dA*dG*dG*dG*dA*dG*dG*dG*dA*dG*dG*dG*dT*dA*dT*dG*dA*dG*dA) [compound 3470] | 88.9% |
| 3471 (dA*dA*dG*dG*dA*dA*dC*dT*dT*dG*dG*dT*dT*dA*dG*dG*dG*dT*dA*dG*dG) [compound 3471] | 34.5% |
| 3472 (dT*dG*dG*dG*dT*dG*dA*dG*dG*dG*dA*dT*dG*dC*dT*dT*dT*dC*dT*dG*dC) [compound 3472] | 69.0% |
| 3473 (dC*dT*dG*dC*dC*dT*dG*dG*dC*dC*dT*dC*dT*dA*dG*dG*dA*dT*dG*dG*dG) [compound 3473] | 25.9% |
| 3474 (dA*dT*dA*dG*dA*dA*dG*dG*dG*dC*dT*dC*dC*dT*dG*dC*dC*dT*dG*dG*dC) [compound 3474] | 13.3% |
| 3475 (dT*dC*dT*dC*dA*dT*dT*dC*dT*dG*dG*dG*dT*dG*dG*dG*dT*dA*dT*dA*dG) [compound 3475] | 67.0% |
| 3476 (dG*dC*dT*dG*dG*dA*dA*dA*dT*dC*dT*dG*dC*dT*dG*dG*dA*dT*dG*dT*dC) [compound 3476] | 43.4% |
| 3477 (dG*dT*dG*dG*dA*dG*dG*dA*dG*dA*dG*dC*dA*dG*dT*dA*dG*dA*dA*dG*dG) [compound 3477] | 54.7% |
| 3478 (dT*dG*dG*dT*dT*dA*dA*dG*dC*dA*dC*dG*dG*dA*dG*dT*dT*dG*dA*dG*dG) [compound 3478] | 26.4% |
| 3479 (dC*dC*dG*dG*dA*dG*dT*dA*dC*dA*dG*dC*dT*dT*dC*dT*dT*dT*dG*dG*dT) [compound 3479] | 42.3% |
| 3480 (dT*dT*dG*dC*dT*dT*dT*dA*dT*dT*dC*dA*dG*dA*dA*dG*dA*dG*dA*dC*dC) [compound 3480] | 24.5% |
| 3481 (dT*dT*dT*dT*dT*dG*dA*dT*dT*dT*dG*dC*dT*dA*dA*dT*dT*dG*dC*dT*dT) [compound 3481] | 2.2% |

| Substance | % Inhibition (1 μM) |
| --- | --- |
| 3628 (dG*dG*dA*dG*dC*dC*dC*dT*dT*dC*dT*dA*dT*dA*dC*dC*dC*dA*dC*dC*dC) [compound 3628] | 13.6% |
| 3629 (dC*dA*dC*dC*dC*dC*dT*dC*dG*dT*dT*dG*dC*dT*dG*dA*dG*dT*dC*dC*dC) [compound 3629] | 20.5% |
| 3630 (dT*dC*dT*dC*dA*dT*dA*dC*dC*dC*dT*dC*dC*dC*dT*dC*dC*dC*dT*dA*dC) [compound 3630] | 17.6% |
| 3631 (dA*dG*dG*dT*dC*dG*dA*dG*dG*dA*dG*dT*dG*dG*dT*dC*dT*dG*dA*dG*dC) [compound 3631] | 20.7% |
| 3632 (dC*dC*dA*dG*dG*dA*dG*dA*dG*dG*dT*dC*dG*dG*dT*dA*dA*dG*dG*dC*dG) [compound 3632] | 29.2% |
| 3633 (dG*dT*dA*dG*dG*dG*dA*dT*dG*dG*dG*dA*dG*dT*dG*dA*dA*dG*dG*dA*dG) [compound 3633] | 58.5% |
| 3659 (dT*dG*dC*dT*dC*dC*dT*dC*dC*dT*dT*dG*dG*dT*dG*dG*dC*dT*dC*dT*dC) [compound 3659] | 38.2% |
| 3663 (dC*dT*dC*dT*dG*dC*dT*dG*dG*dG*dT*dG*dG*dT*dC*dT*dC*dA*dA*dC*dT) [compound 3663] | 16.3% |
| 3665 (dG*dG*dA*dC*dT*dG*dG*dC*dC*dT*dA*dG*dC*dT*dC*dC*dT*dC*dT*dG*dC) [compound 3665] | 45.8% |
| 3669 (dG*dG*dT*dG*dA*dC*dA*dA*dA*dT*dG*dC*dA*dG*dA*dT*dG*dG*dA*dC*dT) [compound 3669] | 34.7% |
| 3671 (dT*dA*dG*dG*dA*dG*dG*dG*dT*dC*dT*dT*dC*dA*dT*dG*dG*dT*dA*dA*dG) [compound 3671] | 49.3% |
| 3676 (dA*dG*dC*dT*dC*dT*dT*dA*dC*dC*dA*dA*dA*dG*dA*dT*dC*dA*dT*dG*dA) [compound 3676] | 24.5% |
| 3679 (dA*dG*dT*dA*dG*dG*dC*dC*dT*dG*dG*dA*dA*dG*dG*dA*dA*dA*dT*dT*dT) [compound 3679] | 30.3% |
| 3688 (dT*dG*dG*dC*dC*dT*dC*dA*dC*dC*dG*dA*dT*dC*dC*dG*dT*dT*dG*dC*dA) [compound 3688] | 43.1% |
| 3694 (dA*dC*dA*dG*dC*dA*dG*dC*dT*dG*dT*dG*dA*dG*dG*dA*dG*dA*dC*dA*dC) [compound 3694] | 28.2% |
| 3697 (dA*dC*dT*dC*dT*dT*dA*dC*dC*dA*dC*dA*dG*dG*dT*dG*dA*dT*dT*dC*dT) [compound 3697] | 39% |
| 3712 (dA*dG*dG*dA*dG*dT*dC*dC*dT*dG*dT*dT*dT*dT*dG*dA*dA*dA*dT*dC*dA) [compound 3712] | 31.8% |
| 4133 (dA*dG*dT*dG*dC*dA*dC*dG*dT*dT*dG*dA*dG*dT*dA*dT*dG*dT*dG*dA*dG) [compound 4133] | 37.3% |
| 4149 (dC*dT*dA*dC*dG*dG*dC*dA*dG*dA*dG*dA*dC*dG*dA*dG*dA*dT*dA*dG*dC) [compound 4149] | 20.2% |

same assay, conditions: Table 5; 1 μM; two separate experiments

| Substance | % Inhibition (1 μM) |
| --- | --- |
| 3196 (dG*dG*dG*dT*dG*dG*dG*dT*dA*dT*dA*dG*dA*dA*dG*dG*dG*dC*dT*dC*dC) [compound 3196] | 100% and 76.2% |
| 4672 (dG*dG*dG*dT*dG*dG*dG*dT*dA*dT*dA*dG) [compound 4672] | 73.9% and 94.6% |
| 4946 (dG*dG*dG*dT*dG*dG*dG*dA*dA*dT*dA*dG) [compound 4946] | 73.2% |
| 4947 (dA*dG*dG*dT*dG*dG*dG*dT*dA*dT*dA*dG) [compound 4947] | 22.7% |
| 4955 (dG*dG*dG*dA*dG*dG*dG*dT*dA*dT*dA*dG) [compound 4955] | 97.5% |
| 4956 (dG*dG*dG*dC*dG*dG*dG*dT*dA*dT*dA*dG) [compound 4956] | 92.0% |
| 4957 (dG*dG*dG*dT*dG*dG*dA*dT*dA*dT*dA*dG) [compound 4957] | 81.9% |
| 4962 (dG*dG*dG*dT*dG*dG*dG*dT*dA*dT) [compound 4962] | 36.3% |

same assay, conditions: b86; fold higher

| Substance | I.C.50 relative to ISIS 3196 |
| --- | --- |
| 3628 (dG*dG*dA*dG*dC*dC*dC*dT*dT*dC*dT*dA*dT*dA*dC*dC*dC*dA*dC*dC*dC) [compound 3628] | approximately 10 fold |
